From patent publication US10912764B2, “Salinosporamides and methods of use thereof” (The Regents of the University of California, priority 2002, dated 2021)
Values after ≈ are worked out from the molar mass of the structure shown. Like-named read-outs stand apart in the source and are kept apart here.

Tests used:
[1] = Solubility in organic solvents; conditions: CHCl3, methanol, and other polar solvents like DMSO, acetone, acetonitrile, benzene, pyridine, N,N-dimethyformamide
[2] = system: Enterococcus faecium (vanomycin resistant); assay: Antibacterial screening, Enterococcus faecium; type: cell-based
Candida albicans = assay: Antifungal screening, Candida albicans; type: cell-based; conditions: antifungal activity
[3] = system: Candida albicans (amphoterocin B resistant); assay: Antifungal screening, Candida albicans (amphoterocin B resistant); type: cell-based
[4] = system: Staphylococcus aureus (methecillin resistant); assay: Antibacterial screening, Staphylococcus aureus; type: cell-based
HCT-116 = HCT-116 human colon cancer cell cytotoxicity assay
[5] = HCT-116, read-out: IC50, cytotoxic activity against human colon cancer cells

Compound	solubility [1]	antibacterial activity, Enterococcus faecium [2]	IC50 ([2]; Enterococcus faecium) [mg/L]	IC50 (Candida albicans) [mg/L]	IC50 [3] [mg/L]	antibacterial activity, Staphylococcus aureus [4]	IC50 ([4]; Staphylococcus aureus) [mg/L]	IC50 (HCT-116; HCT-116, read-out: IC50, HCT-116) [mg/L]	IC50 (HCT-116; [5]) [mg/L]
C[C@@]12OC(=O)[C@]1([C@@H](O)[C@@H]1C=CCCC1)NC(=O)[C@@H]2CCCl [Salinosporamide A]	soluble	no antibacterial activity	> 250	250 (≈ 797 µM)	> 250	no antibacterial activity	> 250	0.011 (≈ 0.0351 µM)	0.011 (≈ 0.0351 µM)
COc1cc([C@@H]2c3cc4c(cc3[C@@H](O[C@@H]3O[C@@H]5CO[C@@H](C)O[C@H]5[C@H](O)[C@H]3O)[C@H]3COC(=O)[C@H]23)OCO4)cc(OC)c1O [etoposide, reference compound]	–	–	–	–	–	–	–	–	0.828 (≈ 1.41 µM)
